Measurements from publication PMC7377474, “Preclinical characterization of CPL302-253, a selective inhibitor of PI3Kδ, as the candidate for the inhalatory treatment and prevention of Asthma” (PLoS ONE, 2020).
Where “and” joins values, the source holds several entries; their conditions need not be identical. Equal entries are not always repeated.

Key:
[1] = system: human primary cell cultures and co-cultures; format: cell-based
Procedure: (§1) BioMap Profiling study was performed by DiscovereX according to service provider’s protocol. In brief cultures or co-cultures of human primary cells were treated with sets of stimulators specific for cell subsets. […] The expression of biomarkers specific for each system was measured by ELISA and other techniques. The results are shown as log-transformed ratio of the biomarker readouts for the drug-treated sample to vehicle controls. The grey area parallel to the x-axis indicates the 95% significance region calculated based on historical vehicle controls. […]

[2] = system: B cells; test: B lymphocyte activation assay; details: for CD25 expression (Fig 3A), single replicates / ki-67 expression (Fig 3B), single replicates: activated B cells
Procedure: B cells were isolated from human frozen PBMCs using EasySep Human CD19 Positive Isolation Kit (StemCell Technologies) according to manufacturers’ protocol. The cells were seeded in AIM V medium (Gibco). […] After 72 hours of culture the cells were stained with antibody againstCD25 (BC96, eBioscience) and ki-67 (Clone 20Raj1, Invitrogen) and analysed on FACSCalibur.

[3] = system: HDM induced asthma mouse model; test: HDM-steroid insensitive asthma mice model; details: for IL-33 concentration in BAL (Fig 7B), single animals / eosinophils number in BAL (Fig 7A), single animals: day 15
[4] = system: co-culture of dermal fibroblasts and keratinocytes; test: BioMAP profiling, KF3CT system; format: cell-based, human
Procedure: BioMap Profiling study was performed by DiscovereX according to service provider’s protocol. In brief cultures or co-cultures of human primary cells were treated with sets of stimulators specific for cell subsets. […] The assays included positive and negative controls as well as vehicle control. The expression of biomarkers specific for each system was measured by ELISA and other techniques.

[5] = system: CD19 B cells and PBMC stimulated with αIgM and TCR ligands; test: BioMAP profiling, BT system; format: cell-based, human
Procedure: as §1

[6] = target: T1, CCKAR (Homo sapiens, UniProt P32238); test: SafetyScan44; format: cell-based; details: 10 μM
T1 construct: purchased DiscoverX (Eurofins) SafetyScan44
Procedure: (§2) SafetyScan44 assay was performed by DiscoverX according to service provider’s protocol.

[7] = target: T2, CHRM3 (Homo sapiens, UniProt P20309); test: SafetyScan44; format: cell-based; details: 10 μM
T2 construct: purchased DiscoverX (Eurofins) SafetyScan44
Procedure: as §2

[8] = target: T3, ROCK1 (Homo sapiens, UniProt Q13464); test: SafetyScan44; format: cell-based; details: 10 μM; Inhibitor mode
T3 construct: purchased DiscoverX (Eurofins) SafetyScan44
Procedure: as §2

[9] = target: T4, HRH2 (Homo sapiens, UniProt P25021); test: SafetyScan44; format: cell-based; details: 10 μM
T4 construct: purchased DiscoverX (Eurofins) SafetyScan44
Procedure: as §2

[10] = target: T5, CNR2 (Homo sapiens, UniProt P34972); test: SafetyScan44; format: cell-based; details: 10 μM
T5 construct: purchased DiscoverX (Eurofins) SafetyScan44
Procedure: as §2

[11] = target: T6, DAT (Homo sapiens, UniProt Q01959); test: SafetyScan44; format: cell-based; details: 10 μM; Blocker mode
T6 construct: purchased DiscoverX (Eurofins) SafetyScan44
Procedure: as §2

[12] = target: T7, COX1 (Homo sapiens, UniProt P23219); test: SafetyScan44; format: cell-based; details: 10 μM; Inhibitor mode
T7 construct: purchased DiscoverX (Eurofins) SafetyScan44
Procedure: as §2

[13] = target: T8, OPRK1 (Homo sapiens, UniProt P41145); test: SafetyScan44; format: cell-based; details: 10 μM
T8 construct: purchased DiscoverX (Eurofins) SafetyScan44
Procedure: as §2

[14] = target: T9, CNR1 (Homo sapiens, UniProt P21554); test: SafetyScan44; format: cell-based; details: 10 μM
T9 construct: purchased DiscoverX (Eurofins) SafetyScan44
Procedure: as §2

[15] = target: T10, NAV1.5 (Homo sapiens, UniProt Q14524); test: SafetyScan44; format: cell-based; details: 10 μM; Blocker mode
T10 construct: purchased DiscoverX (Eurofins) SafetyScan44
Procedure: as §2

[16] = target: T11, AVPR1A (Homo sapiens, UniProt P37288); test: SafetyScan44; format: cell-based; details: 10 μM
T11 construct: purchased DiscoverX (Eurofins) SafetyScan44
Procedure: as §2

[17] = target: T12, EDNRA (Homo sapiens, UniProt P25101); test: SafetyScan44; format: cell-based; details: 10 μM
T12 construct: purchased DiscoverX (Eurofins) SafetyScan44
Procedure: as §2

[18] = target: T13, PDE3A (Homo sapiens, UniProt Q14432); test: SafetyScan44; format: cell-based; details: 10 μM; Inhibitor mode
T13 construct: purchased DiscoverX (Eurofins) SafetyScan44
Procedure: as §2

[19] = target: T14, AR (Homo sapiens, UniProt P10275); test: SafetyScan44; format: cell-based; details: 10 μM
T14 construct: purchased DiscoverX (Eurofins) SafetyScan44
Procedure: as §2

[20] = target: T15, ADRA1A (Homo sapiens, UniProt P35348); test: SafetyScan44; format: cell-based; details: 10 μM
T15 construct: purchased DiscoverX (Eurofins) SafetyScan44
Procedure: as §2

[21] = target: T16, OPRM1 (Homo sapiens, UniProt P35372); test: SafetyScan44; format: cell-based; details: 10 μM
T16 construct: purchased DiscoverX (Eurofins) SafetyScan44
Procedure: as §2

[22] = target: T17, NET (Homo sapiens, UniProt P23975); test: SafetyScan44; format: cell-based; details: 10 μM; Blocker mode
T17 construct: purchased DiscoverX (Eurofins) SafetyScan44
Procedure: as §2

[23] = target: T18, HTR2B (Homo sapiens, UniProt P41595); test: SafetyScan44; format: cell-based; details: 10 μM
T18 construct: purchased DiscoverX (Eurofins) SafetyScan44
Procedure: as §2

[24] = target: T19, DRD1 (Homo sapiens, UniProt P21728); test: SafetyScan44; format: cell-based; details: 10 μM
T19 construct: purchased DiscoverX (Eurofins) SafetyScan44
Procedure: as §2

[25] = target: T20, ADRB2 (Homo sapiens, UniProt P07550); test: SafetyScan44; format: cell-based; details: 10 μM
T20 construct: purchased DiscoverX (Eurofins) SafetyScan44
Procedure: as §2

[26] = 72 h, concentration 1 (unit not given)
[27] = 72 h, concentration 10 (unit not given)
[28] = 72 h, concentration 100 (unit not given)
[29] = 72 h, concentration 1000 (unit not given)
[30] = 72 h, concentration 10000 (unit not given)
[31] = HDM + 0.5 mg/kg i.n., 0.5 mg/kg
[32] = i.n. on day 12, 13 and 14, HDM challenge day 14, BALF day 15

T12 sequence (P25101 21-427): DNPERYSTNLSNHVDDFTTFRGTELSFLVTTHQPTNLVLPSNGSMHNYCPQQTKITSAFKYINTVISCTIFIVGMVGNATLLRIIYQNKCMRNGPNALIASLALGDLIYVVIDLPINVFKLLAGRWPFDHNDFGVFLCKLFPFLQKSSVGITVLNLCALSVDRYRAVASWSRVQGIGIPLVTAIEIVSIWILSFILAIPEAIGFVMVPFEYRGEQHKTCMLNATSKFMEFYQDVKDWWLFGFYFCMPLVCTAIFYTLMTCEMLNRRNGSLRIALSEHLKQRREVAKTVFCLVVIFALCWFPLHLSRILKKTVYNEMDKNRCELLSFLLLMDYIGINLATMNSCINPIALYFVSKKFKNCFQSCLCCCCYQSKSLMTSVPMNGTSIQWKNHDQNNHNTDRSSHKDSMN
T15 sequence (P35348 whole entry): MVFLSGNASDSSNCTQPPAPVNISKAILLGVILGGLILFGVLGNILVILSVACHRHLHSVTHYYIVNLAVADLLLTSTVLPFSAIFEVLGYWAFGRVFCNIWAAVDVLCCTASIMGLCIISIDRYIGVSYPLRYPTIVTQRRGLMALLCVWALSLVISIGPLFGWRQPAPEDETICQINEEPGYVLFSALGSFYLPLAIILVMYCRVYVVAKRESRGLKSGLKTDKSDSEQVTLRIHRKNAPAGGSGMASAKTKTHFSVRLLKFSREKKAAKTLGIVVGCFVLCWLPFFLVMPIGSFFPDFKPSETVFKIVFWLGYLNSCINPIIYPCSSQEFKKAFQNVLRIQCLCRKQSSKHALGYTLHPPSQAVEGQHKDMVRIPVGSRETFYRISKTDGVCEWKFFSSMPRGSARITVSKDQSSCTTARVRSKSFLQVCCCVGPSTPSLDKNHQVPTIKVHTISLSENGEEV
T1 sequence (P32238 whole entry): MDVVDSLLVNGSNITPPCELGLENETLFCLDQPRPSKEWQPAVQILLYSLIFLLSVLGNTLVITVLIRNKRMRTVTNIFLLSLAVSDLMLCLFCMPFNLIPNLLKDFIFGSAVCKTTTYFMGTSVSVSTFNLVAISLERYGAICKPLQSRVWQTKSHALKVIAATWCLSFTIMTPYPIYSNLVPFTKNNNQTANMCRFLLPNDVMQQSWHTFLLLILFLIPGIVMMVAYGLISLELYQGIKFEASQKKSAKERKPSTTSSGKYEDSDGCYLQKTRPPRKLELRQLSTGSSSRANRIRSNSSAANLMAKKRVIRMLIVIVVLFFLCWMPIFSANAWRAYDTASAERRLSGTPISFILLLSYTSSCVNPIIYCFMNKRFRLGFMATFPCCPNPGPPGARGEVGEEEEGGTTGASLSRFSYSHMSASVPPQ
T4 sequence (P25021 whole entry): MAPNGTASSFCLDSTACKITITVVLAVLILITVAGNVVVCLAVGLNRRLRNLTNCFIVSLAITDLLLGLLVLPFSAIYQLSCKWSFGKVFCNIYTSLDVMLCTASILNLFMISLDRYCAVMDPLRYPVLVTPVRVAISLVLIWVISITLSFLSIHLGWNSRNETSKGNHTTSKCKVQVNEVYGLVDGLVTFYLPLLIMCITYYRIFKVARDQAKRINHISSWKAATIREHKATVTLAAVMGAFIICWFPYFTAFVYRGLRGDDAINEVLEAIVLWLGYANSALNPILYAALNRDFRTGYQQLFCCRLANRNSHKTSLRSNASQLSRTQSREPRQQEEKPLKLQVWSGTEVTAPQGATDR
T2 sequence (P20309 whole entry): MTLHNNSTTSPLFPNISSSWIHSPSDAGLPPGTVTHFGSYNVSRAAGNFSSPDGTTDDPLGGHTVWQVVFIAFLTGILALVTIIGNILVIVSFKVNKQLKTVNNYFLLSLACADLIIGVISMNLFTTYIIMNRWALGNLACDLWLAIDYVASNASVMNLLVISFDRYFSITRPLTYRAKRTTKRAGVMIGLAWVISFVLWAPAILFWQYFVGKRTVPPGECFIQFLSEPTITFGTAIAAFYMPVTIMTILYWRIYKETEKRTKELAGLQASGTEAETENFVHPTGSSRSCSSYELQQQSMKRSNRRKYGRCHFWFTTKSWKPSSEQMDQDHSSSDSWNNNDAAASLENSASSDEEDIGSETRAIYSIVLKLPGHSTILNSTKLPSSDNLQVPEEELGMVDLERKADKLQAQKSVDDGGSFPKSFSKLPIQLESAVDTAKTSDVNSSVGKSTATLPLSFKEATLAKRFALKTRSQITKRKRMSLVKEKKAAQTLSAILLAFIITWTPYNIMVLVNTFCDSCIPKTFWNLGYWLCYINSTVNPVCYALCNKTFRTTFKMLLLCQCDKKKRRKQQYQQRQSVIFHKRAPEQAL
T20 sequence (P07550 whole entry): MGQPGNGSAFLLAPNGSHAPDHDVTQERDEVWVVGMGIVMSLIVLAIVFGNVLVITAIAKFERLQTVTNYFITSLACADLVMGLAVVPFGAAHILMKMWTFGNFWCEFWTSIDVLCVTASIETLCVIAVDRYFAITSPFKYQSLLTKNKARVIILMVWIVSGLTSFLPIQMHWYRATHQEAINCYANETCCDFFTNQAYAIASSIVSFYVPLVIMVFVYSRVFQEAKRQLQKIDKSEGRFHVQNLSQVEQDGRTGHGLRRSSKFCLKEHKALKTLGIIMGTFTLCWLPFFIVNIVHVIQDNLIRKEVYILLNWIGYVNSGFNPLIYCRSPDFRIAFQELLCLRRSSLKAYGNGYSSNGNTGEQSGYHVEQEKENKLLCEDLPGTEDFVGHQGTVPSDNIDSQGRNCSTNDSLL
T11 sequence (P37288 whole entry): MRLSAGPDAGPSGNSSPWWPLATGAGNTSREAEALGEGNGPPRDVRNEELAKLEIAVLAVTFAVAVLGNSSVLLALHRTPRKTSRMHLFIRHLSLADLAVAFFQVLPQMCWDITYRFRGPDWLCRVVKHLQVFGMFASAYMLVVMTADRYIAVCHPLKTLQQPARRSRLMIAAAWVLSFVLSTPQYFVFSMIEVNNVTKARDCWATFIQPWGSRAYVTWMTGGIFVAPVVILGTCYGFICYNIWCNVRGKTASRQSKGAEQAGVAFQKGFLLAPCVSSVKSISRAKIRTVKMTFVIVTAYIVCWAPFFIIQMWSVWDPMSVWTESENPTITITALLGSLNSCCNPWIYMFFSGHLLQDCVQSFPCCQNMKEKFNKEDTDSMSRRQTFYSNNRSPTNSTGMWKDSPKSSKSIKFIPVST
T8 sequence (P41145 whole entry): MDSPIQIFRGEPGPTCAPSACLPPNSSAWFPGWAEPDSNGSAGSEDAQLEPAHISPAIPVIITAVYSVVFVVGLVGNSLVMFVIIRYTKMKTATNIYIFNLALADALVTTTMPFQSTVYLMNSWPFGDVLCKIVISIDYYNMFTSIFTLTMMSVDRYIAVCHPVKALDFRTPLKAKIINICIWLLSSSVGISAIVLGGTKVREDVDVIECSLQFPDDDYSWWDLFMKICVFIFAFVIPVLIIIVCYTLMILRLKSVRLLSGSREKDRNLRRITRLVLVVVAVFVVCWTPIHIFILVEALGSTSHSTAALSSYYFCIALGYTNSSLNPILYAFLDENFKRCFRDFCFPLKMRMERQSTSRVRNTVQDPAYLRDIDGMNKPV
T9 sequence (P21554 whole entry): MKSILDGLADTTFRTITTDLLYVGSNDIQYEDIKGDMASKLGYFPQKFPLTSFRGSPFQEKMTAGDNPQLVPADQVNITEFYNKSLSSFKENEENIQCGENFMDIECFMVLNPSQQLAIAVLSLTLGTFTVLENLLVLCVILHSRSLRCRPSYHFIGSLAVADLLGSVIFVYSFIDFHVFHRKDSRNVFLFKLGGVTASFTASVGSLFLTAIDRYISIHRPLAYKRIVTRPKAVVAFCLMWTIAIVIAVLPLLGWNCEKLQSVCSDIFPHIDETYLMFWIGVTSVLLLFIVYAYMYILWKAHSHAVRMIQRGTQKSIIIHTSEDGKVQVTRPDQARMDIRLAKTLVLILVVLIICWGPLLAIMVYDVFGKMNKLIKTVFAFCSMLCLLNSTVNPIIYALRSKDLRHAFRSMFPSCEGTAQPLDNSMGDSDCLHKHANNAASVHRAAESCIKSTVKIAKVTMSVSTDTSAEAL
T19 sequence (P21728 whole entry): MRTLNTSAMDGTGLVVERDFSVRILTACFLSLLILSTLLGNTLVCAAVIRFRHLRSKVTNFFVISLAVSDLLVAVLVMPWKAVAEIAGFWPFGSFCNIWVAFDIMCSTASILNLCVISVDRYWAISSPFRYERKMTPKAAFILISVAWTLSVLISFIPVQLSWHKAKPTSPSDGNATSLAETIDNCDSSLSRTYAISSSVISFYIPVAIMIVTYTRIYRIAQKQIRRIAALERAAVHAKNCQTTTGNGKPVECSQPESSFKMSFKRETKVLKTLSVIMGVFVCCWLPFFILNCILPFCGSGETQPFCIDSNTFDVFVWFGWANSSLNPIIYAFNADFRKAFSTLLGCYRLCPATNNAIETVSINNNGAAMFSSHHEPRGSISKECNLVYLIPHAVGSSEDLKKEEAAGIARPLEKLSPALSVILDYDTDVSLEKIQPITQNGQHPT
T16 sequence (P35372 whole entry): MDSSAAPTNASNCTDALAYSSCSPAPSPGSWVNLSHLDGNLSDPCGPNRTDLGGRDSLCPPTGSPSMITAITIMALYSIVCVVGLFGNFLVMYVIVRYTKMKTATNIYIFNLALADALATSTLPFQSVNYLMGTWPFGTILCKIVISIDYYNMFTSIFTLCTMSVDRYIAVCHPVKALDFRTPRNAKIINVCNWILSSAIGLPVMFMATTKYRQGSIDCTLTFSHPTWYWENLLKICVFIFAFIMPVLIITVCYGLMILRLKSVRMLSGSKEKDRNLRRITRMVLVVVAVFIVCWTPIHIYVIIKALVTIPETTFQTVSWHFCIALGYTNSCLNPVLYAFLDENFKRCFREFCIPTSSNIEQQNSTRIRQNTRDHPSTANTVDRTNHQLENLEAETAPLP

SMILES: CC(C)(C)N1CCN(Cc2cc3nc(-c4cncc5[nH]ccc45)cc(N4CCOCC4)n3n2)CC1 [CPL302-253]
- cytotoxic effects in BioMap culture systems [1]: no cytotoxic effects observed
- impact on other studied BioMAP systems ([1]; systems other than BT, except PAI-1 in KF3CT): no impact
- B cell proliferation (ki-67 expression) ([2]; B cells activated with ODN2006 and αIgM F(ab')2, 72 h): blocked also B cell proliferation
- concentration at which inhibition of CD25 expression was observed ([2]; B cells after BCR and TLR stimulation, 72 h): 10 nM
- CD25 expression (Fig 3A), single replicates [2, 26]: 68 and 59 and 72 and 57
- ki-67 expression (Fig 3B), single replicates [2, 26]: 46 and 43.4 and 77
- CD25 expression (Fig 3A), single replicates [2, 27]: 52 and 60 and 66 and 49
- ki-67 expression (Fig 3B), single replicates [2, 27]: 48 and 23.5 and 54
- CD25 expression (Fig 3A), single replicates [2, 28]: 39 and 31 and 52 and 64 and 48
- ki-67 expression (Fig 3B), single replicates [2, 28]: 29 and 16.5 and 35
- CD25 expression (Fig 3A), single replicates [2, 29]: 9 and 22 and 24 and 38 and 20
- ki-67 expression (Fig 3B), single replicates [2, 29]: 23 and 2.4 and 24
- CD25 expression (Fig 3A), single replicates [2, 30]: 4 and 3 and 11 and 6
- ki-67 expression (Fig 3B), single replicates [2, 30]: 5 and 1
- IL-33 concentration in BAL (Fig 7B), single animals [3, 31]: 1.6 and -0.3 and -1.1 and -0.8 and -4.4 and 3 and 4.4 and -0.4 and -4.7 and 1.7
- eosinophils number in BAL (Fig 7A), single animals [3, 31]: 32736 and 8169.96 and 5712.6 and 6975 and 20671.5 and 48073 and 6811.27 and 9495.5 and 84434.2 and 46844.4
- IL-33 concentration in BAL (Fig 7B), single animals ([3]; HDM + 5 mg/kg i.n., 5 mg/kg): 0.5 and 3 and -2.8 and 10.8 and 6.1 and 2.3 and 1 and 2.6 and 9.8
- eosinophils number in BAL (Fig 7A), single animals ([3]; HDM + 5 mg/kg i.n., 5 mg/kg): 17665.4 and 6769.78 and 17936.5 and 52878.7 and 44238.8 and 8082.51 and 80102.2 and 24189.9 and 38935.1 and 17565.7
- IL-33 production in the lungs [3, 32]: effectively blocked
- eosinophil influx to the lungs [3, 32]: effectively blocked
- concentration inducing decrease of Plasminogen Activator Inhibitor-1 expression [4]: ≥ 150 nM
- decrease of Plasminogen Activator Inhibitor-1 expression, effect size [4]: lower than 0.2 log10
- expression of IL-2, IL-6, IL-17 and TNFα in BT system [5]: inhibits the expression of all of listed markers in BT system
- proliferation of B cells [5]: blocked proliferation of B cells
- % Response CCKAR Agonist ([6]; Agonist mode): -2.8%
- % Response CCKAR Antagonist ([6]; Antagonist mode): -2.4%
- % Response CHRM3 Agonist ([7]; Agonist mode): 1.2%
- % Response CHRM3 Antagonist ([7]; Antagonist mode): 12.6%
- % Response ROCK1 Inhibitor [8]: 10.3%
- % Response HRH2 Agonist ([9]; Agonist mode): 0.6%
- % Response HRH2 Antagonist ([9]; Antagonist mode): 4.2%
- % Response CNR2 Agonist ([10]; Agonist mode): 16.4%
- % Response CNR2 Antagonist ([10]; Antagonist mode): 1.1%
- % Response DAT Blocker [11]: 56.1%
- % Response COX1 Inhibitor [12]: 4.7%
- % Response OPRK1 Agonist ([13]; Agonist mode): -11.0%
- % Response OPRK1 Antagonist ([13]; Antagonist mode): 0.3%
- % Response CNR1 Agonist ([14]; Agonist mode): -9.2%
- % Response CNR1 Antagonist ([14]; Antagonist mode): -1.3%
- % Response NAV1.5 Blocker [15]: 9.7%
- % Response AVPR1A Agonist ([16]; Agonist mode): -3.2%
- % Response AVPR1A Antagonist ([16]; Antagonist mode): -5.2%
- % Response EDNRA Agonist ([17]; Agonist mode): -3.3%
- % Response EDNRA Antagonist ([17]; Antagonist mode): -4.8%
- % Response PDE3A Inhibitor [18]: -8.1%
- % Response AR Agonist ([19]; Agonist mode): -0.7%
- % Response AR Antagonist ([19]; Antagonist mode): 8.5%
- % Response ADRA1A Agonist ([20]; Agonist mode): -22.5%
- % Response ADRA1A Antagonist ([20]; Antagonist mode): -2.8%
- % Response OPRM1 Agonist ([21]; Agonist mode): -9.0%
- % Response OPRM1 Antagonist ([21]; Antagonist mode): 0.2%
- % Response NET Blocker [22]: 8.5%
- % Response HTR2B Agonist ([23]; Agonist mode): 1.5%
- % Response HTR2B Antagonist ([23]; Antagonist mode): 12.6%
- % Response DRD1 Agonist ([24]; Agonist mode): 1.1%
- % Response DRD1 Antagonist ([24]; Antagonist mode): 9.3%
- % Response ADRB2 Agonist ([25]; Agonist mode): 0.5%
- % Response ADRB2 Antagonist ([25]; Antagonist mode): 17.7%
